Data: PubChem BioAssay (NCI)
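Grown in 96-well plates, cells were treated for 48 hours with each compound at five concentrations. Insufficient inhibition: endpoint recorded as highest concentration tested. The concentration for full growth arrest is given as TGI.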

Assays:
Experiment in all cases: NCI tumour cell line growth inhibition, 48 h
MCF7 breast = test system: MCF7 breast
LOX IMVI melanoma = test system: LOX IMVI melanoma
HCT-116 colon = test system: HCT-116 colon
A498 renal = test system: A498 renal
NCI-H460 lung = test system: NCI-H460 lung
PC-3 prostate = test system: PC-3 prostate
SK-MEL-28 melanoma = test system: SK-MEL-28 melanoma
MOLT-4 leukemia = test system: MOLT-4 leukemia
TK-10 renal = test system: TK-10 renal
HS 578T breast = test system: HS 578T breast
OVCAR-3 ovarian = test system: OVCAR-3 ovarian
OVCAR-8 ovarian = test system: OVCAR-8 ovarian
SK-MEL-2 melanoma = test system: SK-MEL-2 melanoma
T-47D breast = test system: T-47D breast
COLO 205 colon = test system: COLO 205 colon
K-562 leukemia = test system: K-562 leukemia
SNB-19 CNS = test system: SNB-19 CNS
SW-620 colon = test system: SW-620 colon
HOP-92 NSCLC = test system: HOP-92 NSCLC
A549 NSCLC = test system: A549 NSCLC
SR leukemia = test system: SR leukemia
SF-295 CNS = test system: SF-295 CNS
OVCAR-5 ovarian = test system: OVCAR-5 ovarian
MDA-N = test system: MDA-N
NCI/ADR-RES ovarian = test system: NCI/ADR-RES ovarian
SNB-75 CNS = test system: SNB-75 CNS
SF-539 CNS = test system: SF-539 CNS
SK-MEL-5 melanoma = test system: SK-MEL-5 melanoma
UACC-257 melanoma = test system: UACC-257 melanoma
RPMI-8226 leukemia = test system: RPMI-8226 leukemia
SF-268 CNS = test system: SF-268 CNS
M14 melanoma = test system: M14 melanoma
KM12 colon = test system: KM12 colon
NCI-H226 lung = test system: NCI-H226 lung
UO-31 renal = test system: UO-31 renal
SN12C renal = test system: SN12C renal
HL-60(TB) leukemia = test system: HL-60(TB) leukemia
CCRF-CEM leukemia = test system: CCRF-CEM leukemia
MDA-MB-435 = test system: MDA-MB-435
OVCAR-4 ovarian = test system: OVCAR-4 ovarian
CAKI-1 renal = test system: CAKI-1 renal
U251 CNS = test system: U251 CNS
HT29 colon = test system: HT29 colon
UACC-62 melanoma = test system: UACC-62 melanoma
HOP-62 NSCLC = test system: HOP-62 NSCLC
ACHN renal = test system: ACHN renal
786-0 renal = test system: 786-0 renal
SK-OV-3 ovarian = test system: SK-OV-3 ovarian
NCI-H23 lung = test system: NCI-H23 lung
DU-145 prostate = test system: DU-145 prostate
MDA-MB-231 breast = test system: MDA-MB-231 breast
HCC-2998 colon = test system: HCC-2998 colon
RXF 393 renal = test system: RXF 393 renal
EKVX NSCLC = test system: EKVX NSCLC
MALME-3M melanoma = test system: MALME-3M melanoma
HCT-15 colon = test system: HCT-15 colon
NCI-H522 lung = test system: NCI-H522 lung
BT-549 breast = test system: BT-549 breast
IGROV1 ovarian = test system: IGROV1 ovarian

Compound: Cc1csc2[n+]1C(=O)/C(=C\c1ccc([N+](=O)[O-])cc1)S2
- TGI (MCF7 breast): > 100 µM
- TGI (LOX IMVI melanoma): 60.4 µM
- TGI (HCT-116 colon): 38.7 µM
- TGI (A498 renal): 45.5 µM
- TGI (NCI-H460 lung): 41.9 µM
- TGI (PC-3 prostate): 75.5 µM
- TGI (SK-MEL-28 melanoma): > 100 µM
- TGI (MOLT-4 leukemia): > 100 µM
- TGI (TK-10 renal): 58.8 µM
- TGI (HS 578T breast): 74.3 µM
- TGI (OVCAR-3 ovarian): 33.1 µM
- TGI (OVCAR-8 ovarian): > 100 µM
- TGI (SK-MEL-2 melanoma): 63.3 µM
- TGI (T-47D breast): 65.5 µM
- TGI (COLO 205 colon): 39.9 µM
- TGI (K-562 leukemia): > 100 µM
- TGI (SNB-19 CNS): 87.3 µM
- TGI (SW-620 colon): > 100 µM
- TGI (HOP-92 NSCLC): 47.7 µM
- TGI (A549 NSCLC): > 100 µM
- TGI (SR leukemia): > 100 µM
- TGI (SF-295 CNS): 65.1 µM
- TGI (OVCAR-5 ovarian): > 100 µM
- TGI (MDA-N): 75.2 µM
- TGI (NCI/ADR-RES ovarian): 63.6 µM
- TGI (SNB-75 CNS): 57.1 µM
- TGI (SF-539 CNS): > 100 µM
- TGI (SK-MEL-5 melanoma): 55 µM
- TGI (UACC-257 melanoma): > 100 µM
- TGI (RPMI-8226 leukemia): > 100 µM
- TGI (SF-268 CNS): 86.5 µM
- TGI (M14 melanoma): > 100 µM
- TGI (KM12 colon): 82.1 µM
- TGI (NCI-H226 lung): 26.9 µM
- TGI (UO-31 renal): 39.3 µM
- TGI (SN12C renal): 99.3 µM
- TGI (HL-60(TB) leukemia): 64.4 µM
- TGI (CCRF-CEM leukemia): > 100 µM
- TGI (MDA-MB-435): 59.9 µM
- TGI (OVCAR-4 ovarian): > 100 µM
- TGI (CAKI-1 renal): 56.4 µM
- TGI (U251 CNS): 45.7 µM
- TGI (HT29 colon): 60.2 µM
- TGI (UACC-62 melanoma): 41 µM
- TGI (HOP-62 NSCLC): 82.2 µM
- TGI (ACHN renal): 65.7 µM
- TGI (786-0 renal): 71.8 µM
- TGI (SK-OV-3 ovarian): 85.1 µM
- TGI (NCI-H23 lung): 48.6 µM
- TGI (DU-145 prostate): > 100 µM
- TGI (MDA-MB-231 breast): 68.6 µM
- TGI (HCC-2998 colon): 43.9 µM
- TGI (RXF 393 renal): 82.6 µM

Compound: Cc1ccc(S(=O)(=O)n2cc(-c3cc(C(F)(F)F)ccn3)c3cc(Br)ccc32)cc1
- TGI (MCF7 breast): 26 µM
- TGI (LOX IMVI melanoma): 92.2 µM
- TGI (HCT-116 colon): 53 µM
- TGI (A498 renal): 46.9 µM
- TGI (NCI-H460 lung): > 100 µM
- TGI (PC-3 prostate): 41.7 µM
- TGI (SK-MEL-28 melanoma): 62.6 µM
- TGI (MOLT-4 leukemia): > 100 µM
- TGI (TK-10 renal): 44.8 µM
- TGI (HS 578T breast): 41.3 µM
- TGI (EKVX NSCLC): > 100 µM
- TGI (OVCAR-3 ovarian): 30.7 µM
- TGI (SK-MEL-2 melanoma): 10.8 µM
- TGI (T-47D breast): 18.9 µM
- TGI (COLO 205 colon): > 100 µM
- TGI (K-562 leukemia): > 100 µM
- TGI (SNB-19 CNS): 37.5 µM
- TGI (MALME-3M melanoma): 52.7 µM
- TGI (SW-620 colon): > 100 µM
- TGI (HOP-92 NSCLC): 35.3 µM
- TGI (A549 NSCLC): 51.8 µM
- TGI (SR leukemia): > 100 µM
- TGI (SF-295 CNS): 67.7 µM
- TGI (OVCAR-5 ovarian): > 100 µM
- TGI (MDA-N): > 100 µM
- TGI (NCI/ADR-RES ovarian): > 100 µM
- TGI (SF-539 CNS): 39.5 µM
- TGI (SK-MEL-5 melanoma): 82.9 µM
- TGI (HCT-15 colon): > 100 µM
- TGI (UACC-257 melanoma): > 100 µM
- TGI (RPMI-8226 leukemia): > 100 µM
- TGI (SF-268 CNS): 93.9 µM
- TGI (M14 melanoma): > 100 µM
- TGI (KM12 colon): > 100 µM
- TGI (NCI-H226 lung): 57 µM
- TGI (UO-31 renal): 24.7 µM
- TGI (SN12C renal): 88 µM
- TGI (HL-60(TB) leukemia): > 100 µM
- TGI (CCRF-CEM leukemia): > 100 µM
- TGI (MDA-MB-435): > 100 µM
- TGI (OVCAR-4 ovarian): 29.7 µM
- TGI (CAKI-1 renal): 38.6 µM
- TGI (U251 CNS): 34.3 µM
- TGI (HT29 colon): > 100 µM
- TGI (UACC-62 melanoma): 33.3 µM
- TGI (HOP-62 NSCLC): 29.5 µM
- TGI (ACHN renal): 24.3 µM
- TGI (786-0 renal): 36.3 µM
- TGI (SK-OV-3 ovarian): 35.1 µM
- TGI (NCI-H23 lung): 31.1 µM
- TGI (DU-145 prostate): > 100 µM
- TGI (MDA-MB-231 breast): 46.5 µM
- TGI (HCC-2998 colon): 62.6 µM
- TGI (RXF 393 renal): 45.1 µM

Compound: CN(C)CCCSc1nc2ccccc2[nH]1
- TGI (MCF7 breast): > 100 µM
- TGI (LOX IMVI melanoma): > 100 µM
- TGI (HCT-116 colon): > 100 µM
- TGI (A498 renal): > 100 µM
- TGI (NCI-H460 lung): > 100 µM
- TGI (SK-MEL-28 melanoma): > 100 µM
- TGI (TK-10 renal): > 100 µM
- TGI (NCI-H522 lung): > 100 µM
- TGI (HS 578T breast): > 100 µM
- TGI (EKVX NSCLC): > 100 µM
- TGI (OVCAR-3 ovarian): > 100 µM
- TGI (OVCAR-8 ovarian): > 100 µM
- TGI (SK-MEL-2 melanoma): > 100 µM
- TGI (T-47D breast): > 100 µM
- TGI (COLO 205 colon): > 100 µM
- TGI (K-562 leukemia): > 100 µM
- TGI (SNB-19 CNS): > 100 µM
- TGI (MALME-3M melanoma): > 100 µM
- TGI (SW-620 colon): > 100 µM
- TGI (HOP-92 NSCLC): > 100 µM
- TGI (BT-549 breast): > 100 µM
- TGI (A549 NSCLC): > 100 µM
- TGI (SR leukemia): > 100 µM
- TGI (SF-295 CNS): > 100 µM
- TGI (OVCAR-5 ovarian): > 100 µM
- TGI (MDA-N): > 100 µM
- TGI (NCI/ADR-RES ovarian): > 100 µM
- TGI (SNB-75 CNS): > 100 µM
- TGI (SK-MEL-5 melanoma): > 100 µM
- TGI (HCT-15 colon): > 100 µM
- TGI (UACC-257 melanoma): > 100 µM
- TGI (RPMI-8226 leukemia): > 100 µM
- TGI (SF-268 CNS): > 100 µM
- TGI (M14 melanoma): > 100 µM
- TGI (IGROV1 ovarian): > 100 µM
- TGI (KM12 colon): > 100 µM
- TGI (NCI-H226 lung): > 100 µM
- TGI (UO-31 renal): > 100 µM
- TGI (SN12C renal): > 100 µM
- TGI (MDA-MB-435): > 100 µM
- TGI (OVCAR-4 ovarian): > 100 µM
- TGI (CAKI-1 renal): > 100 µM
- TGI (U251 CNS): > 100 µM
- TGI (HT29 colon): > 100 µM
- TGI (UACC-62 melanoma): > 100 µM
- TGI (HOP-62 NSCLC): > 100 µM
- TGI (ACHN renal): > 100 µM
- TGI (786-0 renal): > 100 µM
- TGI (SK-OV-3 ovarian): > 100 µM
- TGI (NCI-H23 lung): > 100 µM
- TGI (DU-145 prostate): > 100 µM
- TGI (MDA-MB-231 breast): > 100 µM
- TGI (HCC-2998 colon): > 100 µM
- TGI (RXF 393 renal): > 100 µM
